biological target: histamine H4 receptor (Homo sapiens, UniProt Q9H3N8); assay: In vitro histamine H4 potency in FLIPR (Ca2+ flux, HEK-293 cells coexpressing Gαqi5); assay type: cell-based; parameters: expressed in transfected cells; conditions: Kb for antagonists and inverse agonists, EC50 for partial agonists
Source text: There are many methods available to show the effectiveness of compounds as histamine H4 receptor ligands. Histamine H4 receptors from mammalian species have been cloned. Methods to clone, express, and assess the potency and functional activity of such cloned genes are well known to those skilled in the art of molecular biology. […] Before testing, cells are loaded with a Ca^+2 sensitive fluorescent dye, in this case Fluo-4. In the case of partial agonist or agonist ligands, addition of compound to the cells leads to the increase in intracellular Ca^+2 which is detected by FLIPR (Fluorescence Imaging Plate Reader; Molecular Devices, Sunnyvale, Calif.) technology. […] The fluorescence intensities measured before addition of the test compound are subtracted from the fluorescence intensities at later time points. Peak response values determined at each concentration of ligand are expressed as a percentage of the response obtained with the full agonist histamine. Concentration versus response data are analyzed to obtain compound potency as Kb values for antagonists and inverse agonists and as EC50 values for partial agonists.

| Potency [µM] | Compound |
| --- | --- |
| 2.57 | c1cncc(CNc2nc3c(c(N4CC5CCCNC5C4)n2)CCCc2ccccc2-3)c1 (stereo not shown) [Example 92, 6-(2-pyridin-3-ylmethylamino-6,7-dihydro-5H-benzo[6,7]cyclohepta[1,2-d]pyrimidin-4-yl)octahydro-1H-pyrrolo[3,4-b]pyridine] |
| 0.087 | Nc1nc2c(c(N3CCNCC3)n1)SCCc1ccccc1-2 [Example 109, 4-Piperazin-1-yl-6,7-dihydro-5-thia-1,3-diaza-dibenzo[a,c]cyclohepten-2-ylamine] |
| 0.631 | [1-(6,7-Dihydro-5H-benzo[6,7]cyclohepta[1,2-d]pyrimidin-4-yl)-azetidin-3-yl]-amine [Example 125] |
| 0.331 | CN[C@H]1CCN(c2nc(N)nc3c2CCCc2ccccc2-3)C1 [Example 14, 4-[(3S)-3-Methylamino-pyrrolidin-1-yl]-6,7-dihydro-5H-benzo[6,7]cyclohepta[1,2-d]pyrimidin-2-ylamine] |
| 25.704 | Nc1nc2c(c(N3CCC(N4CCCCC4)C3)n1)CCCc1ccccc1-2 (stereo not shown) [Example 18, 4-(3-Piperidin-1-yl-pyrrolidin-1-yl)-6,7-dihydro-5H-benzo[6,7]cyclohepta[1,2-d]pyrimidin-2-ylamine] |
| 4.266 | Nc1nc(NCCCN2CCCCC2)c2c(n1)-c1ccccc1CCC2 [Example 113, N^4-(3-Piperidin-1-yl-propyl)-6,7-dihydro-5H-benzo[6,7]cyclohepta[1,2-d]pyrimidine-2,4-diamine] |
| 0.123 | Nc1nc2c(c(N3CC[C@@H](N)C3)n1)CCCCc1ccccc1-2 [Example 55, 4-[(3R)-3-aminopyrrolidin-1-yl]-5,6,7,8-tetrahydrobenzo[7,8]cycloocta[1,2-d]pyrimidin-2-amine] |
| 0.089 | Nc1nc2c(c(N3CC4CCNCC4C3)n1)CCCc1ccccc1-2 (stereo not shown) [Example 79, 4-(Octahydro-pyrrolo[3,4-c]pyridin-2-yl)-6,7-dihydro-5H-benzo[6,7]cyclohepta[1,2-d]pyrimidin-2-ylamine] |
| 1.096 | CC(=O)Nc1cccc2c1-c1nc(N)nc(N3CCNCC3)c1CCC2 [Example 132, N-(2-Amino-4-piperazin-1-yl-6,7-dihydro-H-benzo[6,7]cyclohepta[1,2-d]pyrimidin-11-yl)-acetamide] |
| 0.015 | CN1CCC(Oc2nc(N)nc3c2CCCc2ccccc2-3)CC1 [Example 68, 4-(1-Methyl-piperidin-4-yloxy)-6,7-dihydro-5H-benzo[6,7]cyclohepta[1,2-d]pyrimidin-2-ylamine] |
| 0.053 | COC(=O)c1ccc2c(c1)OCCc1c-2nc(N)nc1N1CC2CCCNC2C1 (stereo not shown) [Example 108, 2-Amino-4-octahydro-pyrrolo[3,4-b]pyridin-6-yl-5,6-dihydro-7-oxa-1,3-diaza-dibenzo[a,c]cycloheptene-9-carboxylic acid methyl ester] |
| 0.12 | CN[C@@H]1CCN(c2nc(N)nc3c2CCOc2cc(I)ccc2-3)C1 [Example 100, 9-Iodo-4-((R)-3-methylamino-pyrrolidin-1-yl)-5,6-dihydro-7-oxa-1,3-diaza-dibenzo[a,c]cyclohepten-2-ylamine] |
| 0.043 | CN[C@@H]1CCN(c2nc(N)nc3c2CCOc2cc(Cl)ccc2-3)C1 [Example 48, 9-chloro-4-[(3R)-3-(methylamino)pyrrolidin-1-yl]-5,6-dihydro[1]benzoxepino[5,4-d]pyrimidin-2-amine] |
| 0.017 | 4-(4-Dimethylamino-piperidin-1-yl)-6,7-dihydro-5H-benzo[6,7]cyclohepta[1,2-d]pyrimidin-2-ylamine [Example 114] |
| 0.1 | CN[C@@H]1CCN(c2nc(N)nc3c2CCOc2c(OC)cccc2-3)C1 [Example 53, 8-methoxy-4-[(3R)-3-(methylamino)pyrrolidin-1-yl]-5,6-dihydro[1]benzoxepino[5,4-d]pyrimidin-2-amine] |
| 0.468 | Nc1nc(O[C@H]2CCNC2)c2c(n1)-c1ccccc1CCC2 [Example 73, 4-((S)-Pyrrolidin-3-yloxy)-6,7-dihydro-5H-benzo[6,7]cyclohepta[1,2-d]pyrimidin-2-ylamine] |

| Potency [µM] | Compound |
| --- | --- |
| 0.407 | Nc1nc(NC2CCCNC2)c2c(n1)-c1ccccc1CCC2 (stereo not shown) [Example 121, N^4-piperidin-3-yl-6,7-dihydro-5H-benzo[6,7]cyclohepta[1,2-d]pyrimidine-2,4-diamine] |
| 0.039 | Nc1nc2c(c(N3CCNCC3)n1)CCSc1ccccc1-2 [Example 36, 4-Piperazin-1-yl-5,6-dihydro-7-thia-1,3-diaza-dibenzo[a,c]cyclohepten-2-ylamine] |
| 0.027 | CN[C@@H]1CCN(c2nc(N)nc3c2CCOc2ccccc2-3)C1 [Example 31, 4-((R)-3-Methylamino-pyrrolidin-1-yl)-5,6-dihydro-7-oxa-1,3-diaza-dibenzo[a,c]cyclohepten-2-ylamine] |
| 0.055 | CN(C)[C@@H]1CCN(c2nc(N)nc3c2CCCc2ccccc2-3)C1 [Example 76, 4-((R)-3-Dimethylamino-pyrrolidin-1-yl)-6,7-dihydro-5H-benzo[6,7]cyclohepta[1,2-d]pyrimidin-2-ylamine] |
| 0.55 | NCCCC(=O)Nc1nc2c(c(N3CCNCC3)n1)CCCc1ccccc1-2 [Example 91, 4-Amino-N-(4-piperazin-1-yl-6,7-dihydro-5H-benzo[6,7]cyclohepta[1,2-d]pyrimidin-2-yl)-butyramide] |
| 0.0087 | CNC1CN(c2nc(N)nc3c2CCOc2ccccc2-3)C1 [Example 32, 4-(3-Methylamino-azetidin-1-yl)-5,6-dihydro-7-oxa-1,3-diaza-dibenzo[a,c]cyclohepten-2-ylamine] |
| 0.891 | Nc1nc2c(c(N3CC[C@@H](N)C3)n1)CCSc1ccccc1-2 [Example 35, 4-(3-(R)-Amino-pyrrolidin-1-yl)-5,6-dihydro-7-thia-1,3-diaza-dibenzo[a,c]cyclohepten-2-ylamine] |
| 15.849 | Nc1nc2c(c(N3C[C@@H]4C[C@H]3CN4)n1)CCCCCc1ccccc1-2 [Example 28, 4-((1S,4S)-2,5-Diaza-bicyclo[2.2.1]hept-2-yl)-6,7,8,9-tetrahydro-5H-1,3-diaza-dibenzo[a,c]cyclononen-2-ylamine] |
| 2.754 | Cc1cc(C)c2c(c1)-c1nc(N)nc(N3CCNCC3)c1CCC2 [Example 126, 8,10-Dimethyl-4-piperazin-1-yl-6,7-dihydro-5H-benzo[6,7]cyclohepta[1,2-d]pyrimidin-2-ylamine] |
| 0.0087 | Nc1nc2c(c(N3CCCNCCC3)n1)CCCc1ccccc1-2 [Example 61, 4-(1,5-diazocan-1-yl)-6,7-dihydro-5H-benzo[6,7]cyclohepta[2-d]pyrimidin-2-amine] |
| 0.269 | Nc1nc(NCCC2CCN2)c2c(n1)-c1ccccc1CCC2 (stereo not shown) [Example 63, N^4-(2-azetidin-2-ylethyl)-6,7-dihydro-5H-benzo[6,7]cyclohepta[1,2-d]pyrimidine-2,4-diamine] |
| 0.0078 | CN[C@@H]1CCN(c2nc(N)nc3c2CCCc2ccc(F)cc2-3)C1 [Example 11, 10-Fluoro-4-(3-(R)-methylamino-pyrrolidin-1-yl)-6,7-dihydro-5H-benzo[6,7]cyclohepta[1,2-d]pyrimidin-2-ylamine] |
| 0.891 | CN1CC2CC(C1)N(c1nc(N)nc3c1CCCc1ccccc1-3)C2 (stereo not shown) [Example 86, 4-(3-Methyl-3,6-diaza-bicyclo[3.2.1]oct-6-yl)-6,7-dihydro-5H-benzo[6,7]cyclohepta[1,2-d]pyrimidin-2-ylamine] |
| 0.039 | CN1CCN(c2nc(N)nc3c2CCOc2ccccc2-3)CC1 [Example 29, 4-(4-Methyl-piperazin-1-yl)-5,6-dihydro-7-oxa-1,3-diaza-dibenzo[a,c]cyclohepten-2-ylamine] |
| 0.069 | CN[C@@H]1CCN(c2nc(N)nc3c2CCOc2ccc(Cl)cc2-3)C1 [Example 45, 10-chloro-4-[(3R)-3-(methylamino)pyrrolidin-1-yl]-5,6-dihydro[1]benzoxepino[5,4-d]pyrimidin-2-amine] |
| 0.015 | Nc1nc2c(c(N3CCCNCC3)n1)CCCc1ccccc1-2 [Example 116, 4-[1,4]Diazepan-1-yl-6,7-dihydro-5H-benzo[6,7]cyclohepta[1,2-d]pyrimidin-2-ylamine] |

| Compound | Potency [µM] |
| --- | --- |
| Nc1nc2c(c(N3CC[C@@H]4CNC[C@@H]43)n1)CCCc1ccccc1-2 [Example 19, 4-((3aR,6aR)-Hexahydro-pyrrolo[3,4-b]pyrrol-1-yl)-6,7-dihydro-5H-benzo[6,7]cyclohepta[1,2-d]pyrimidin-2-ylamine] | 0.603 |
| Nc1nc2c(c(N3CC4CNCC3C4)n1)CCCc1ccccc1-2 (stereo not shown) [Example 81, 4-(3,6-Diaza-bicyclo[3.2.1]oct-6-yl)-6,7-dihydro-5H-benzo[6,7]cyclohepta[1,2-d]pyrimidin-2-ylamine] | 4.169 |
| c1ccc2c(c1)CCCc1c-2nc(NCCc2c[nH]cn2)nc1N1CC2CCCNC2C1 (stereo not shown) [Example 127, 6-(2-(1H-imidazol-4-yl)ethylamino-6,7-dihydro-5H-benzo[6,7]cyclohepta[1,2-d]pyrimidin-4-yl)octahydro-1H-pyrrolo[3,4-b]pyridine] | 0.933 |
| CN1[C@@H]2CC[C@H]1CC(Nc1nc(N)nc3c1CCCc1ccccc1-3)C2 (stereo partly drawn) [Example 66, N^4-[(1R,5S)-8-methyl-8-azabicyclo[3.2.1]oct-3-yl]-6,7-dihydro-5H-benzo[6,7]cyclohepta[1,2-d]pyrimidine-2,4-diamine] | 0.017 |
| c1ccc2c(c1)CCCc1c-2nc(N2CCNCC2)nc1N1CCNCC1 [Example 103, 2,4-Di-piperazin-1-yl-6,7-dihydro-5H-benzo[6,7]cyclohepta[1,2-d]pyrimidine] | 0.351 |

— patent US8735411B2, “Macrocyclic benzofused pyrimidine derivatives” (AbbVie Inc., priority 2006, dated 2014)
